Columns and labels:
[1] = target: Tyrosine-protein kinase CSK (Homo sapiens, UniProt P41240); assay: CSK Inhibition Assay
Protocol: Test compound was dissolved in DMSO at 10 mM. 45 uL of compound was transferred into a 384-well compound source plate (LABCYTE cat #P-05525) and serially diluted at 1:3 ratio to create a 11-point dilutions. The same volume of DMSO was adopted as high control. 20 nL of these compounds DMSO dilutes were dispensed into a new 384-well assay plate by Echo 550. […] 15 uL of kinase assay buffer containing CSK protein and substrate was transferred to assay plate and incubated at RT for 30 minutes. Kinase assay buffer supplemented with substrate peptides was employed as low control to monitor the background. 4 μM of ATP was prepared in kinase assay buffer and 5 μL of ATP solution was added to each well to start the reaction. The assay plate was incubated at 25° C. for 90 minutes and the reaction was stopped by adding 40 μL of 0.5 M EDTA.

[2] = target: Tyrosine-protein kinase Lck (Homo sapiens, UniProt P06239); assay: LCK Inhibition Assay
Protocol: Test compound was dissolved in DMSO at 10 mM. 45 uL of compound was transfer into a 384-well compound source plate (LABCYTE cat #P-05525) and serially diluted at 1:3 ratio to create a 11-point dilutions. The same volume of DMSO was adopted as high control. 20 nL of these compounds DMSO dilutes were dispensed into a new 384-well assay plate by Echo 550. LCK protein (0.50 nM, Cama Biosciences, cat #08-170), florescent labeled substrate FLPeptide4 (2 μM, PerkinElmer, cat #760348) was prepared in kinase assay buffer (50 mM HEPES (pH 7.5), 10 mM MgCl2, 0.01% Brij-35, 2 mM DTT and 0.005 mg/ml BSA). 15 uL of kinase assay buffer containing LCK protein and substrate was transferred to assay plate and incubate at RT for 30 minutes. Kinase assay buffer supplemented with substrate peptides was employed as low control to monitor the background. 400 μM ATP was prepared in kinase assay buffer and 5 μL of ATP solution was added to each well to start the reaction. The assay plate was incubated at 25° C. for 90 minutes and the reaction was stopped by adding 40 μL of 0.5 M EDTA.

Tyrosine-protein kinase Lck, sequence (P06239 whole entry): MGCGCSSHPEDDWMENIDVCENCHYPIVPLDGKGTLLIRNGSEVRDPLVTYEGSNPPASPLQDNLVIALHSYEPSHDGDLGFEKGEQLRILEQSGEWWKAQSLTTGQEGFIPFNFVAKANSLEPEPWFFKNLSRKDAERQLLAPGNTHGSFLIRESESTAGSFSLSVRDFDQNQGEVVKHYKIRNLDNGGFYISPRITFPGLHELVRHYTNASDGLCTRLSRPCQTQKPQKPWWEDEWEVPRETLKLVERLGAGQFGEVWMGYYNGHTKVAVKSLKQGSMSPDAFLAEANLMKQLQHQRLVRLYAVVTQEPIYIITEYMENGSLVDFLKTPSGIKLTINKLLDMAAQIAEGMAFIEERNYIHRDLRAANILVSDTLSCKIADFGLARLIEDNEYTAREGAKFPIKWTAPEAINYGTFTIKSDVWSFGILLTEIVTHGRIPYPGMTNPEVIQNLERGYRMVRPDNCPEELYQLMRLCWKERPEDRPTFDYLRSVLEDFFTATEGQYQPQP

IC50 [1] | IC50 [2] | Compound
> 10000 nM | – | Nc1nccc(-c2sc(-c3ccccc3)nc2-c2cccc(NS(=O)(=O)c3ccc4c(c3)CNC4)c2F)n1 [US12427146, Compound 82]
4510 nM | – | Nc1nccc(-c2sc(-c3ccccc3)nc2-c2cccc(NS(=O)(=O)c3ccc4c(c3)CNC4=O)c2F)n1 [US12427146, Compound 81]
4.1 nM | < 100 nM | COc1cc(NS(=O)(=O)c2c(F)cccc2F)c(F)c(-c2nc(-c3ccccc3)sc2-c2ccnc(N)n2)c1 [US12427146, Compound 23]
132 nM | > 1000 nM | Nc1nccc(-c2sc(-c3ccccc3)nc2-c2cc(F)cc(NS(=O)(=O)c3c(F)cccc3F)c2)n1 [US12427146, Compound 20]
44.8 nM | > 1000 nM | COc1cc(F)c(S(=O)(=O)Nc2cccc(-c3nc(-c4ccccc4)sc3-c3ccnc(N)n3)c2F)c(F)c1 [US12427146, Compound 22]
25.2 nM | – | COc1cc(NS(=O)(=O)c2c(F)cccc2F)cc(-c2nc(-c3cncc(F)c3)sc2-c2ccnc(N)n2)c1 [US12427146, Compound 21]
